# Measurements published in article PMC8162069 (Chemical Science, 2020).
# Biological target: HepG (Trichoderma virens, UniProt G9NDK9)
# Assay: X-ray crystal structure
# Format: binding
# Details: active site of each subunit
# Sequence of HepG (G9NDK9 1-336): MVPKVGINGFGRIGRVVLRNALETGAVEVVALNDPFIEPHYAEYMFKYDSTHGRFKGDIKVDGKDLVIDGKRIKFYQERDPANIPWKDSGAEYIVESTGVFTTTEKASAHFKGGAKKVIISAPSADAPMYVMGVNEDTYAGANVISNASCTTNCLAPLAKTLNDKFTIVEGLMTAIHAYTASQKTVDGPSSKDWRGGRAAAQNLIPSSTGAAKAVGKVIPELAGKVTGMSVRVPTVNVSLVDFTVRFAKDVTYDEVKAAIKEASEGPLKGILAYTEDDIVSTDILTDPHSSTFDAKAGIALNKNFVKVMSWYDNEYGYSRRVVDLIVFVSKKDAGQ
structure (smiles),measurement,value
NC(=O)c1ccc[n+]([C@@H]2O[C@H](COP(=O)(O)OP(=O)(O)OC[C@H]3O[C@@H](n4cnc5c(N)ncnc54)[C@H](O)[C@@H]3O)[C@@H](O)[C@H]2O)c1 [NAD^+],X-ray crystal structure,Each subunit of the tetrameric HepG contains a NAD^+ cofactor
